In US20240343740A1, “MACROCYCLIC GLUCAGON-LIKE PEPTIDE 1 RECEPTOR AGONISTS” (Eli Lilly and Company, priority 2021, published 2024):

Legend:
human GLP-1R [1] = target: T1, human GLP-1R (Homo sapiens, UniProt P43220); test: Human GLP-1 Receptor HEK293 cell cAMP assay, 581 fmol/mg GLP-1R expression density; type: cell-based; design: expressed in transfected cells; host or cells: HEK293 clonal cell line; settings: HEK293 cell line with 581 fmol/mg expression density of GLP-1R; for EC50: geometric mean, read-out: EC50 nM (SEM, n), intracellular cAMP response, relative EC50; for Emax: percent of maximal response to GLP-1(7-36)NH2, arithmetic mean, read-out: Emax % (SEM, n), intracellular cAMP response
T1 sequence (P43220 24-463): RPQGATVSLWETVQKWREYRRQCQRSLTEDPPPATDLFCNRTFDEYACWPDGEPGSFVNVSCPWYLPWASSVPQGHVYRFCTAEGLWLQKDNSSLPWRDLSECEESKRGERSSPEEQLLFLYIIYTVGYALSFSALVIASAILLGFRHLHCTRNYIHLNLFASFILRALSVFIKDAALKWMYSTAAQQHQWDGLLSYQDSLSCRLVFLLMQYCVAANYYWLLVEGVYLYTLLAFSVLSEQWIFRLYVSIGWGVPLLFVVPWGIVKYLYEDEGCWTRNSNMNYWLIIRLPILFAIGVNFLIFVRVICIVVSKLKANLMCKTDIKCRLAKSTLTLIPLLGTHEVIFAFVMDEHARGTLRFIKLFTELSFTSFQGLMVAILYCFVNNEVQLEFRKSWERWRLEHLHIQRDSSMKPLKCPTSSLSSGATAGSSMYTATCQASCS
Outline: (§1)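 HEK293 clonal lines expressing human GLP-1R, 20-point compound curves, 30 min at 37° C in DMEM with 0.1% casein, 250 μM IBMX, 0.5% DMSO. cAMP by HTRF, converted via standard curve to % of maximal human GLP-1(7-36)NH2 response; relative EC50 and Emax from four-parameter logistic fit.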

human GLP-1R [2] = target: T1, human GLP-1R; test: Human GLP-1 Receptor HEK293 cell cAMP assay, 104 fmol/mg GLP-1R expression density; type: cell-based; design: expressed in transfected cells; host or cells: HEK293 clonal cell line; settings: HEK293 cell line with 104 fmol/mg expression density of GLP-1R; for EC50: geometric mean, read-out: EC50 nM (SEM, n), intracellular cAMP response, relative EC50; for Emax: percent of maximal response to GLP-1(7-36)NH2, arithmetic mean, read-out: Emax % (SEM, n), intracellular cAMP response
Outline: as §1

Structure (SMILES) | EC50 (human GLP-1R [1]) [nM] | Emax (human GLP-1R [1]) [%] | EC50 (human GLP-1R [2]) [nM] | Emax (human GLP-1R [2]) [%]
COCCOc1cc(C(=O)O)cc2c1nc(Cc1cc(F)c3cc1COCCc1cc(ccc1C#N)COc1cccc-3n1)n2C[C@@H]1CCO1 [Example 58, (S)-2-((5^4-Cyano-1^6-fluoro-3,8-dioxa-2(2,6)-pyridina-1,5(1,3)-dibenzenacyclononaphane-1^4-yl)methyl)-4-(2-methoxyethoxy)-1-(oxetan-2-ylmethyl)-1H-benzo[d]imidazole-6-carboxylic acid] | 0.633 | 109 | 1.62 | 90
N#Cc1ccc2c(c1)CCOCc1cc(ccc1Cc1nc3c(F)cc(C(=O)O)cc3n1C[C@@H]1CCO1)-c1cccc(n1)OC2 [Example 61, (S)-2-((5^4-cyano-3,8-dioxa-2(2,6)-pyridina-1(1,3),5(1,2)-dibenzenacyclononaphane-1^4-yl)methyl)-4-fluoro-1-(oxetan-2-ylmethyl)-1H-benzo[d]imidazole-6-carboxylic acid] | 18.1 | 110 | 79.1 | 93.2
CCn1cncc1Cn1c(Cc2ccc3cc2OCCCc2cc(C#N)ccc2COc2cccc-3n2)nc2c(OC)cc(C(=O)O)cc21 [Example 63, 2-((5^4-Cyano-3,9-dioxa-2(2,6)-pyridina-1(1,3),5(1,2)-dibenzenacyclononaphane-1^4-yl)methyl)-1-((1-ethyl-1H-imidazol-5-yl)methyl)-4-methoxy-1H-benzo[d]imidazole-6-carboxylic acid] | 29.9 | 101 | 112 | 81.1
COCCOc1cc(C(=O)O)cc2c1nc(Cc1ccc3cc1COCCc1cc(C#N)ccc1COc1cccc-3n1)n2C[C@@H]1CCO1 [Example 64, (S)-2-((5^4-Cyano-3,8-dioxa-2(2,6)-pyridina-1(1,3),5(1,2)-dibenzenacyclononaphane-1^4-yl)methyl)-4-(2-methoxyethoxy)-1-(oxetan-2-ylmethyl)-1H-benzo[d]imidazole-6-carboxylic acid] | 2.13 | 110 | 5.53 | 87.3
COCCOc1cc(C(=O)O)cc2c1nc(Cc1ccc3cc1COCCc1cc(ccc1C#N)COc1cccc-3n1)n2C[C@@H]1CCO1 [Example 65, (S)-2-((5^4-Cyano-3,8-dioxa-2(2,6)-pyridina-1,5(1,3)-dibenzenacyclononaphane-1^4-yl)methyl)-4-(2-methoxyethoxy)-1-(oxetan-2-ylmethyl)-1H-benzo[d]imidazole-6-carboxylic acid] | 1.86 | 110 | 4.62 | 98.2
COCCOc1cc(C(=O)O)cc2c1nc(Cc1cc(F)c3cc1COCc1cc(Cl)ccc1COc1cccc-3n1)n2C[C@@H]1CCO1 [Example 67, (S)-2-((5^4-Chloro-1^6-fluoro-3,7-dioxa-2(2,6)-pyridina-1(1,3),5(1,2)-dibenzenacyclooctaphane-1^4-yl)methyl)-4-(2-methoxyethoxy)-1-(oxetan-2-ylmethyl)-1H-benzo[d]imidazole-6-carboxylic acid] | 2.13 | 117 | 6.88 | 91.6
COCCOc1cc(C(=O)O)cc2c1nc(Cc1cc(F)c3cc1COCc1cc(C#N)ccc1COc1cccc-3n1)n2C[C@@H]1CCO1 [Example 68, (S)-2-((5^4-Cyano-1^6-fluoro-3,7-dioxa-2(2,6)-pyridina-1(1,3),5(1,2)-dibenzenacyclooctaphane-1^4-yl)methyl)-4-(2-methoxyethoxy)-1-(oxetan-2-ylmethyl)-1H-benzo[d]imidazole-6-carboxylic acid] | 6.82 | 115 | 8.72 | 98.5
COc1cc(C(=O)NS(=O)(=O)CC2CC2)cc2c1nc(Cc1cc(C)c3cc1OCCCc1cc(F)ccc1COc1cccc-3n1)n2C[C@@H]1CCO1 [Example 69, (S)—N-((Cyclopropylmethyl)sulfonyl)-2-((5^4-fluoro-1^6-methyl-3,9-dioxa-2(2,6)-pyridina-1(1,3),5(1,2)-dibenzenacyclononaphane-1^4-yl)methyl)-4-methoxy-1-(oxetan-2-ylmethyl)-1H-benzo[d]imidazole-6-carboxamide] | 59.8 | 71.6 | 103 | 26.6
COCCOc1cc(C(=O)O)cc2c1nc(Cc1cc(F)c3cc1COCCc1cc(C#N)cc(F)c1COc1cccc-3n1)n2C[C@@H]1CCO1 [Example 70, (S)-2-((5^4-Cyano-1^6,5^6-difluoro-3,8-dioxa-2(2,6)-pyridina-1(1,3),5(1,2)-dibenzenacyclononaphane-1^4-yl)methyl)-4-(2-methoxyethoxy)-1-(oxetan-2-ylmethyl)-1H-benzo[d]imidazole-6-carboxylic acid] | 3.11 | 92.3 | 12.6 | 95
COCCOc1cc(C(=O)O)cc2c1nc(Cc1cc(F)c3cc1COCc1cc(-c4ccc(=O)n(C)c4)ccc1COc1cccc-3n1)n2C[C@@H]1CCO1 [Example 75, (S)-2-((1^6-Fluoro-5^4-(1-methyl-6-oxo-1,6-dihydropyridin-3-yl)-3,7-dioxa-2(2,6)-pyridina-1(1,3),5(1,2)-dibenzenacyclooctaphane-1^4-yl)methyl)-4-(2-methoxyethoxy)-1-(oxetan-2-ylmethyl)-1H-benzo[d]imidazole-6-carboxylic acid] | 6.33 | 93.9 | 17.4 | 71.6

Results, then the compound that gave them:

EC50 (human GLP-1R [1]) [nM] | Emax (human GLP-1R [1]) [%] | EC50 (human GLP-1R [2]) [nM] | Emax (human GLP-1R [2]) [%] | Structure (SMILES)
262 | 90.9 | 515 | 48.4 | CN1CCC(Oc2cc(C(=O)O)cc3c2nc(Cc2ccc4cc2OCCCc2cc(C#N)ccc2COc2cccc-4n2)n3C[C@@H]2CCO2)C1 (stereo partly drawn) [Example 59, 2-((5^4-Cyano-3,9-dioxa-2(2,6)-pyridina-1(1,3),5(1,2)-dibenzenacyclononaphane-1^4-yl)methyl)-4-((1-methylpyrrolidin-3-yl)oxy)-1-(((S)-oxetan-2-yl)methyl)-1H-benzo[d]imidazole-6-carboxylic acid]
285 | 62.2 | 737 | 32.9 | CN(C)C(=O)COc1cc(C(=O)O)cc2c1nc(Cc1ccc3cc1OCCCc1cc(C#N)ccc1COc1cccc-3n1)n2C[C@@H]1CCO1 [Example 62, (S)-2-((5^4-Cyano-3,9-dioxa-2(2,6)-pyridina-1(1,3),5(1,2)-dibenzenacyclononaphane-1^4-yl)methyl)-4-(2-(dimethylamino)-2-oxoethoxy)-1-(oxetan-2-ylmethyl)-1H-benzo[d]imidazole-6-carboxylic acid]
13.4 | 118 | 54.5 | 82.5 | O=C(O)c1ccc2nc(Cc3ccc4cc3OCCCc3cc(-n5cnc(F)c5)ccc3COc3cccc-4n3)n(C[C@@H]3CCO3)c2c1 [Example 66, (S)-2-((5^4-(4-Fluoro-1H-imidazol-1-yl)-3,9-dioxa-2(2,6)-pyridina-1(1,3),5(1,2)-dibenzenacyclononaphane-1^4-yl)methyl)-1-(oxetan-2-ylmethyl)-1H-benzo[d]imidazole-6-carboxylic acid]
138 | 68.4 | 598 | 52.1 | O=C(O)c1ccc2nc(Cc3ccc4cc3OCCCc3cc(-n5ccc(=O)c(F)c5)ccc3COc3cccc-4n3)n(C[C@@H]3CCO3)c2c1 [Example 71, (S)-2-((5^4-(3-Fluoro-4-oxopyridin-1(4H)-yl)-3,9-dioxa-2(2,6)-pyridina-1(1,3),5(1,2)-dibenzenacyclononaphane-1^4-yl)methyl)-1-(oxetan-2-ylmethyl)-1H-benzo[d]imidazole-6-carboxylic acid]
92.5 | 106 | 348 | 90.4 | Cc1cn(-c2ccc3c(c2)CCCOc2cc(ccc2Cc2nc4ccc(C(=O)O)cc4n2C[C@@H]2CCO2)-c2cccc(n2)OC3)cn1 [Example 72, (S)-2-((5^4-(4-Methyl-1H-imidazol-1-yl)-3,9-dioxa-2(2,6)-pyridina-1(1,3),5(1,2)-dibenzenacyclononaphane-1^4-yl)methyl)-1-(oxetan-2-ylmethyl)-1H-benzo[d]imidazole-6-carboxylic acid]
21.3 | 106 | 68.5 | 84.1 | O=C(O)c1ccc2nc(Cc3ccc4cc3OCCCc3cc(-n5ccnc5)ccc3COc3cccc-4n3)n(C[C@@H]3CCO3)c2c1 [Example 73, (S)-2-((5^4-(1H-Imidazol-1-yl)-3,9-dioxa-2(2,6)-pyridina-1(1,3),5(1,2)-dibenzenacyclononaphane-1^4-yl)methyl)-1-(oxetan-2-ylmethyl)-1H-benzo[d]imidazole-6-carboxylic acid]
155 | 92.1 | 533 | 73.3 | O=C(O)c1ccc2nc(Cc3ccc4cc3OCCCc3cc(-n5ccc(=O)cc5)ccc3COc3cccc-4n3)n(C[C@@H]3CCO3)c2c1 [Example 74, (S)-1-(Oxetan-2-ylmethyl)-2-((5^4-(4-oxopyridin-1(4H)-yl)-3,9-dioxa-2(2,6)-pyridina-1(1,3),5(1,2)-dibenzenacyclononaphane-1^4-yl)methyl)-1H-benzo[d]imidazole-6-carboxylic acid]
